In the kinase profiling compilation of Christmann-Franck et al. (2016):

Key:
Test in all cases: KINOMEscan competition binding
Settings in all cases: compound 10.0 µM; call rule not given here
PRKACB (human) = PRKACB (human) (UniProt P22694)
TGFBR1 (human) = TGFBR1 (human) (UniProt P36897)
RIPK2 (human) = RIPK2 (human) (UniProt O43353)
STK32C (human) = STK32C (human) (UniProt Q86UX6)
PRKX (human) = PRKX (human) (UniProt P51817)
NEK2 (human) = NEK2 (human) (UniProt P51955)
CLK1 (human) = CLK1 (human) (UniProt P49759)
TLK2 (human) = TLK2 (human) (UniProt Q86UE8)
CLK3 (human) = CLK3 (human) (UniProt P49761)
PLK1 (human) = PLK1 (human) (UniProt P53350)
MARK1 (human) = MARK1 (human) (UniProt Q9P0L2)
MAPK1 (human) = MAPK1 (human) (UniProt P28482)
PAK6 (human) = PAK6 (human) (UniProt Q9NQU5)
INSR (human) = INSR (human) (UniProt P06213)
EPHB3 (human) = EPHB3 (human) (UniProt P54753)
EPHB2 (human) = EPHB2 (human) (UniProt P29323)
PAK3 (human) = PAK3 (human) (UniProt O75914)
IGF1R (human) = IGF1R (human) (UniProt P08069)
NEK6 (human) = NEK6 (human) (UniProt Q9HC98)
MAP3K5 (human) = MAP3K5 (human) (UniProt Q99683)
NTRK1 (human) = NTRK1 (human) (UniProt P04629)
INSRR (human) = INSRR (human) (UniProt P14616)
CAMKK2 (human) = CAMKK2 (human) (UniProt Q96RR4)
MUSK (human) = MUSK (human) (UniProt O15146)
PTK6 (human) = PTK6 (human) (UniProt Q13882)
CAMK2D (human) = CAMK2D (human) (UniProt Q13557)
LTK (human) = LTK (human) (UniProt P29376)
PHKG2 (human) = PHKG2 (human) (UniProt P15735)
RPS6KA3 KD1 (human) = RPS6KA3 KD1 (human) (UniProt P51812)
CSK (human) = CSK (human) (UniProt P41240)
EPHA4 (human) = EPHA4 (human) (UniProt P54764)
PRKG1 (human) = PRKG1 (human) (UniProt Q13976)
FGFR1 (human) = FGFR1 (human) (UniProt P11362)
CAMK1G (human) = CAMK1G (human) (UniProt Q96NX5)
PLK3 (human) = PLK3 (human) (UniProt Q9H4B4)
PTK2B (human) = PTK2B (human) (UniProt Q14289)
LIMK1 (human) = LIMK1 (human) (UniProt P53667)
MAPK14 (human) = MAPK14 (human) (UniProt Q16539)
MAPK3 (human) = MAPK3 (human) (UniProt P27361)

Chain of MUSK (human) (O15146 whole entry, looked up): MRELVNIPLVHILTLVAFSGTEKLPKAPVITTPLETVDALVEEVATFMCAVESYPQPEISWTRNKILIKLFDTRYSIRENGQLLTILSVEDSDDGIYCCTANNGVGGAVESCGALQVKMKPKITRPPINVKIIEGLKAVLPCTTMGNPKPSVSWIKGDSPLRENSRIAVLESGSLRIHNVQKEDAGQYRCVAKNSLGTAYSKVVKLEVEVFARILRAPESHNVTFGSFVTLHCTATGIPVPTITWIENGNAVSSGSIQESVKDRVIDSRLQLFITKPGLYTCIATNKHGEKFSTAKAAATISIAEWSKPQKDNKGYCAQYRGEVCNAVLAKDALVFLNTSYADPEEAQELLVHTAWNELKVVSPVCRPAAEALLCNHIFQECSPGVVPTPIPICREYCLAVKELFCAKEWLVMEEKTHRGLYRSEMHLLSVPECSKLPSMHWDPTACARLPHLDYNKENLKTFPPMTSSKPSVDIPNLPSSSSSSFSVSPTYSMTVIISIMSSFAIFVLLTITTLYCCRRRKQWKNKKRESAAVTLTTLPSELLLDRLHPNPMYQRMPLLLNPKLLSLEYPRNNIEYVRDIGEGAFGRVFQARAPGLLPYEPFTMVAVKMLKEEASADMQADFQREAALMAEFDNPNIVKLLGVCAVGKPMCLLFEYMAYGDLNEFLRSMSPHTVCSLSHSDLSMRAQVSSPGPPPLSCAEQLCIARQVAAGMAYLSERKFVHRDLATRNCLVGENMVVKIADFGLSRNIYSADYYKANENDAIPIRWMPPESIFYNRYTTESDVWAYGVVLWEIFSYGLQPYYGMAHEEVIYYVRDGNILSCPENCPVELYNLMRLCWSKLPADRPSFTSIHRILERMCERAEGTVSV
Chain of STK32C (human) (Q86UX6 whole entry, looked up): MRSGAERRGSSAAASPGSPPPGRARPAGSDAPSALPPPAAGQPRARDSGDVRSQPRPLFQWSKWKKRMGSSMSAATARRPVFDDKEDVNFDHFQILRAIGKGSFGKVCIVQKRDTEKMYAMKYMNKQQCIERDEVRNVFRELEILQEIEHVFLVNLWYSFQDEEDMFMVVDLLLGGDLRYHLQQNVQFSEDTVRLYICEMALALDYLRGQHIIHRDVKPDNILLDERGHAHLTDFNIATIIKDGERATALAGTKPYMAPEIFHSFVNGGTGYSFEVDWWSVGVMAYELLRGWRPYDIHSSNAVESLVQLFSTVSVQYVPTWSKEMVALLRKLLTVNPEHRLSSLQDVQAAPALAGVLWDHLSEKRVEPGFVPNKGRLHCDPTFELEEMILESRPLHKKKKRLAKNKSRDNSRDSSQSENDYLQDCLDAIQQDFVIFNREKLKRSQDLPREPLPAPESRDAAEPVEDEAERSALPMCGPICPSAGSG
Chain of PRKX (human) (P51817 whole entry, looked up): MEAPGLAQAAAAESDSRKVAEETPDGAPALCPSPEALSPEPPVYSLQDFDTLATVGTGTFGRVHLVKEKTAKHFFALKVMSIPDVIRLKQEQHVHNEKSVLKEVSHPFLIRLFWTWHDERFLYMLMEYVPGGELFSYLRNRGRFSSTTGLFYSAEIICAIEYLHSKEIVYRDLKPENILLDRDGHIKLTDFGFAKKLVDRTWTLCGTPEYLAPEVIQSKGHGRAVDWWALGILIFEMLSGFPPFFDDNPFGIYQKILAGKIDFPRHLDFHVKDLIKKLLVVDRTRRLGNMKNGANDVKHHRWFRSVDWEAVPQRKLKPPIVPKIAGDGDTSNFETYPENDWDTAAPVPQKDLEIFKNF
Chain of MAP3K5 (human) (Q99683 whole entry, looked up): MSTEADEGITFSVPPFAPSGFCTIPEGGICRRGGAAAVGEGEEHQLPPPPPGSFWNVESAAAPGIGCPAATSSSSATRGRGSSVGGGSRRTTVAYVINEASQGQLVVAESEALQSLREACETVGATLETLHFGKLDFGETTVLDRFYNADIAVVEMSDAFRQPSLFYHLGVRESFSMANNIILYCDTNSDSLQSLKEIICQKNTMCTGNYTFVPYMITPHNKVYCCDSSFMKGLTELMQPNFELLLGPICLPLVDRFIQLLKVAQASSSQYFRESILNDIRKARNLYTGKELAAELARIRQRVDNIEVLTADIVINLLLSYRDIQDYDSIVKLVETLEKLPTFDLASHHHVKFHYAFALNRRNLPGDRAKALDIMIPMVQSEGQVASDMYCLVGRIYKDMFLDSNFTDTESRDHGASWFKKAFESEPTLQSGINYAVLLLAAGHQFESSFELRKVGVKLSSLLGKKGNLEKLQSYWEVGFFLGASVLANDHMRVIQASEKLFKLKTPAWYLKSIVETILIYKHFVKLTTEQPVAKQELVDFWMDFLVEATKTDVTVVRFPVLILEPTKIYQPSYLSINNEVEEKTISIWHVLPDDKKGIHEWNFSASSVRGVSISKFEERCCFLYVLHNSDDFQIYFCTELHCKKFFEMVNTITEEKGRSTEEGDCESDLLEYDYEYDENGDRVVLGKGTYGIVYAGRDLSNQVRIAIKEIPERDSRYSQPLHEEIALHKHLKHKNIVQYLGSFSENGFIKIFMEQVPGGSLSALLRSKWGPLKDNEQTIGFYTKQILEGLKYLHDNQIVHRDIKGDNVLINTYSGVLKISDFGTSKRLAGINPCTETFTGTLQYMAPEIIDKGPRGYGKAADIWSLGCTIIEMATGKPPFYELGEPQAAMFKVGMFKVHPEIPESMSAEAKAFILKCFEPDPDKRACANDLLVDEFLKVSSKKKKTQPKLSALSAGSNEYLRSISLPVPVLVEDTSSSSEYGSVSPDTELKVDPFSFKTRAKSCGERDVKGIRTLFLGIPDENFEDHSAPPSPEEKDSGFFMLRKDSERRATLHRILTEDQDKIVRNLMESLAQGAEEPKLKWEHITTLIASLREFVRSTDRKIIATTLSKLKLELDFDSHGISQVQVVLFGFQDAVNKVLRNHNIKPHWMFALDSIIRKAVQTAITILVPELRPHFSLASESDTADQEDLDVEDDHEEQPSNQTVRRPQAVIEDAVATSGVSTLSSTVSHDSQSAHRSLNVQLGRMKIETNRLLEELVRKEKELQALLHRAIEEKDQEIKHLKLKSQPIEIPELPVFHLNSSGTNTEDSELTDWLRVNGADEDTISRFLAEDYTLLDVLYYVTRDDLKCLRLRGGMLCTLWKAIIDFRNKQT
Chain of CAMK2D (human) (Q13557 whole entry, looked up): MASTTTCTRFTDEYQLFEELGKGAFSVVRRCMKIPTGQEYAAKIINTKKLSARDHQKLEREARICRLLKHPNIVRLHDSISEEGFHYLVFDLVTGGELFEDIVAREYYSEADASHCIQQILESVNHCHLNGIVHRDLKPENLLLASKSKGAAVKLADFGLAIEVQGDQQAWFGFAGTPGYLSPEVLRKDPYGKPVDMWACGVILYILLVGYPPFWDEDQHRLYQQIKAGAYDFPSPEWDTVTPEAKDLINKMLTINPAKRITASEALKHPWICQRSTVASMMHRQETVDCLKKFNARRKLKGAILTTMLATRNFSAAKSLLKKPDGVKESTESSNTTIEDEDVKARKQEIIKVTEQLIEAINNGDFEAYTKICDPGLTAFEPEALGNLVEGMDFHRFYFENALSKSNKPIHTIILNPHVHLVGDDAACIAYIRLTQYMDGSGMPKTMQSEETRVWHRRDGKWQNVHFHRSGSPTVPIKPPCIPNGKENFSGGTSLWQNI
Chain of RPS6KA3 KD1 (human) (P51812 whole entry, looked up): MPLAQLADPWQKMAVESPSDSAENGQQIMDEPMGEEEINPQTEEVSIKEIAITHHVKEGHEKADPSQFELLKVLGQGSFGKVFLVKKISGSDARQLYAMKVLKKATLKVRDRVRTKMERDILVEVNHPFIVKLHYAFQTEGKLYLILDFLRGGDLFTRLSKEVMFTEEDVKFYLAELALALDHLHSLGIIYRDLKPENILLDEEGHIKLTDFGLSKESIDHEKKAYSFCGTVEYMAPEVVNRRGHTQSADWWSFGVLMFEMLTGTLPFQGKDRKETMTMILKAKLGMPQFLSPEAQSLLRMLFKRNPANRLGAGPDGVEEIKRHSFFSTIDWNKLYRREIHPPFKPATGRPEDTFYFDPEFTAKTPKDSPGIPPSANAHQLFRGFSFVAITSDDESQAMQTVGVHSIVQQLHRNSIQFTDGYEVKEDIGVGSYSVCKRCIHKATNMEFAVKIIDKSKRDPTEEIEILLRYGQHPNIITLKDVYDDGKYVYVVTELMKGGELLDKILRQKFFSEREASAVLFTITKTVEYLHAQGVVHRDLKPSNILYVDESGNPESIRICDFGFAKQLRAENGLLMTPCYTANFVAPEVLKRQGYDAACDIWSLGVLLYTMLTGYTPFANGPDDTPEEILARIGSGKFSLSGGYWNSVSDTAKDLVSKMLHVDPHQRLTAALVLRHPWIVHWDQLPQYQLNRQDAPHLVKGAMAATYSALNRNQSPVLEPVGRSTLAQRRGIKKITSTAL
Chain of PAK3 (human) (O75914 whole entry, looked up): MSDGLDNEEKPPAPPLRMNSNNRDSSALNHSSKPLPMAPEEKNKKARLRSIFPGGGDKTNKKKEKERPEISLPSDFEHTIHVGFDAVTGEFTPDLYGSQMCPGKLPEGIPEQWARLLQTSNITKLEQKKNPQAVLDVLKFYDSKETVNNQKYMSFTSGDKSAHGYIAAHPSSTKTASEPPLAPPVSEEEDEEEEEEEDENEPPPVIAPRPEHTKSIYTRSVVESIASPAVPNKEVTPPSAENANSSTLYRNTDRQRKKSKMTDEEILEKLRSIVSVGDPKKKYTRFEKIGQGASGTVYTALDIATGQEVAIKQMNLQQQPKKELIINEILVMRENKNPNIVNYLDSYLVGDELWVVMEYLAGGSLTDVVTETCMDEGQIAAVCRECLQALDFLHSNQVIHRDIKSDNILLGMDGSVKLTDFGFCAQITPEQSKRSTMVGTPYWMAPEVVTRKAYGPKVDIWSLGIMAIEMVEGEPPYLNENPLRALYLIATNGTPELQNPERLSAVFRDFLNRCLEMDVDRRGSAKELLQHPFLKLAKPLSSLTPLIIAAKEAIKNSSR

SMILES | kinase still bound, per cent of control (PRKACB (human)) | kinase still bound, per cent of control (TGFBR1 (human)) | kinase still bound, per cent of control (RIPK2 (human)) | kinase still bound, per cent of control (STK32C (human)) | kinase still bound, per cent of control (PRKX (human)) | kinase still bound, per cent of control (NEK2 (human)) | kinase still bound, per cent of control (CLK1 (human)) | kinase still bound, per cent of control (TLK2 (human)) | kinase still bound, per cent of control (CLK3 (human)) | kinase still bound, per cent of control (MARK1 (human)) | kinase still bound, per cent of control (MAPK1 (human)) | kinase still bound, per cent of control (PAK6 (human)) | kinase still bound, per cent of control (EPHB3 (human)) | kinase still bound, per cent of control (EPHB2 (human)) | kinase still bound, per cent of control (PAK3 (human)) | kinase still bound, per cent of control (NEK6 (human)) | kinase still bound, per cent of control (MAP3K5 (human)) | kinase still bound, per cent of control (NTRK1 (human)) | kinase still bound, per cent of control (INSRR (human)) | kinase still bound, per cent of control (MUSK (human)) | also measured
Cc1ccc(O)cc1Nc1ccnc(Nc2cccc(C(N)=O)c2)n1 | no effect (inactive) | 0% | 0% | no effect (inactive) | no effect (inactive) | no effect (inactive) | no effect (inactive) | no effect (inactive) | no effect (inactive) | no effect (inactive) | no effect (inactive) | no effect (inactive) | 0% | 0% | no effect (inactive) | no effect (inactive) | no effect (inactive) | no effect (inactive) | no effect (inactive) | no effect (inactive) | kinase still bound, per cent of control (PLK1 (human)): no effect (inactive); kinase still bound, per cent of control (INSR (human)): no effect (inactive); kinase still bound, per cent of control (IGF1R (human)): no effect (inactive); kinase still bound, per cent of control (CAMKK2 (human)): no effect (inactive); kinase still bound, per cent of control (PTK6 (human)): 0%; kinase still bound, per cent of control (CAMK2D (human)): no effect (inactive); kinase still bound, per cent of control (LTK (human)): no effect (inactive); kinase still bound, per cent of control (PHKG2 (human)): no effect (inactive); kinase still bound, per cent of control (RPS6KA3 KD1 (human)): no effect (inactive); kinase still bound, per cent of control (CSK (human)): 0%; kinase still bound, per cent of control (EPHA4 (human)): 0%; kinase still bound, per cent of control (PRKG1 (human)): no effect (inactive); kinase still bound, per cent of control (FGFR1 (human)): no effect (inactive); kinase still bound, per cent of control (CAMK1G (human)): no effect (inactive)
CN(C)c1ccc(-c2cc3ncccc3c(NCCCCN)n2)cc1 | no effect (inactive) | no effect (inactive) | no effect (inactive) | no effect (inactive) | no effect (inactive) | no effect (inactive) | no effect (inactive) | no effect (inactive) | no effect (inactive) | no effect (inactive) | no effect (inactive) | no effect (inactive) | no effect (inactive) | no effect (inactive) | no effect (inactive) | no effect (inactive) | no effect (inactive) | no effect (inactive) | no effect (inactive) | no effect (inactive) | kinase still bound, per cent of control (PLK3 (human)): no effect (inactive); kinase still bound, per cent of control (PTK2B (human)): no effect (inactive); kinase still bound, per cent of control (LIMK1 (human)): no effect (inactive); kinase still bound, per cent of control (CAMK2D (human)): no effect (inactive); kinase still bound, per cent of control (RPS6KA3 KD1 (human)): no effect (inactive); kinase still bound, per cent of control (CSK (human)): no effect (inactive); kinase still bound, per cent of control (EPHA4 (human)): no effect (inactive); kinase still bound, per cent of control (PRKG1 (human)): no effect (inactive); kinase still bound, per cent of control (FGFR1 (human)): no effect (inactive); kinase still bound, per cent of control (MAPK14 (human)): no effect (inactive); kinase still bound, per cent of control (CAMK1G (human)): no effect (inactive); kinase still bound, per cent of control (MAPK3 (human)): no effect (inactive)
